Active and inactive are the calls of the source. The rule behind the calls is not given here.
Tests used:
[1] = Tmax in Sprague-Dawley rat at 10 mg/kg, po measured upto 24 hrs by LC-MS/MS analysis; format: ADME, organism-based; conditions: in vivo
MDA-MB-468 [2] = assay: Induction of apoptosis in human MDA-MB-468 cells assessed as upregulation of Bax expression incubated for 24 hrs; format: functional, cell-based; conditions: dose 5-20 µM
MDA-MB-468 [3] = assay: Inhibition of cell migration in human MDA-MB-468 cells assessed as upregulation of E-cadherin level by measuring fluorescence intensity at 10 uM incubated for 24 hrs by confocal microscopic analysis; format: functional, cell-based
MDA-MB-436 [4] = assay: Induction of cell cycle arrest in human MDA-MB-436 cells assessed as accumulation of cells at G1 phase at 20 uM measured after 24 hrs by PI staining based cytometry analysis (reference value: 72.04%); format: functional
[5] = Toxicity in BALB/c mouse xenografted with human MDA-MB-231 cells assessed as morphological changes in liver at 20 to 80 mg/kg, ip administered once daily for 16 days by H and E staining based analysis; format: organism-based; conditions: in vivo, 384 h, dose 20-80 mg/kg, time 16 day
MDA-MB-468 [6] = assay: Antiproliferative activity against human MDA-MB-468 cells assessed as decrease in number of colony formation at 10 uM measured after 24 days by crystal violet staining based analysis; format: functional, cell-based; conditions: time 24.0 day
MDA-MB-436 [7] = assay: Induction of cell cycle arrest in human MDA-MB-436 cells assessed as accumulation of cells at G2 phase at 10 uM measured after 24 hrs by PI staining based cytometry analysis (reference value: 2.54%); format: functional
[8] = target: Dual specificity protein kinase CLK1 (Homo sapiens) (UniProt P49759); assay: Inhibition of CLK1 (unknown origin) at 1 uM relative to control
[9] = AUC (0 to infinity) in Sprague-Dawley rat at 1 mg/kg, iv measured upto 24 hrs by LC-MS/MS analysis; format: ADME, organism-based; conditions: in vivo
[10] = target: Cyclin-dependent kinase 12 (Homo sapiens, UniProt Q9NYV4); assay: Inhibition of CDK12 in human MDA-MB-436 cells assessed as effect on Pol II CTD at ser5 residue phosphorylation incubated for 24 hrs; format: cell-based; conditions: dose 5-20 µM
MDA-MB-231 [11] = assay: Induction of cell cycle arrest in human MDA-MB-231 cells assessed as accumulation of cells at G2 phase at 20 uM measured after 24 hrs by PI staining based cytometry analysis (reference value: 8.44 %); format: functional
[12] = MRT (0 to infinity) in Sprague-Dawley rat at 1 mg/kg, iv measured upto 24 hrs by LC-MS/MS analysis; format: ADME, organism-based; conditions: in vivo
MCF-10A = assay: Cytotoxicity against human MCF-10A cells assessed reduction in cell viability incubated for 24 hrs by MTT assay; format: toxicity, cell-based
MDA-MB-231 [13] = assay: Antitumor activity against human MDA-MB-231 cells xenografted in ip dosed BALB/c mouse assessed as downregulation of MMP-2 level administered once daily for 16 days; format: functional, organism-based; conditions: dose 20-80 mg/kg, time 16.0 day
[14] = target: Poly [ADP-ribose] polymerase 1 (Homo sapiens, UniProt P09874); assay: Inhibition of PARP1 (unknown origin) incubated for 1 hr by ELISA analysis
[15] = Clearance in Sprague-Dawley rat at 1 mg/kg, iv measured upto 24 hrs by LC-MS/MS analysis; format: ADME, organism-based; conditions: in vivo
[16] = target: T1, Dual specificity tyrosine-phosphorylation-regulated kinase 2 (Homo sapiens) (UniProt Q92630); assay: Inhibition of DYRK2 (unknown origin) at 1 uM relative to control
T1 sequence (whole entry): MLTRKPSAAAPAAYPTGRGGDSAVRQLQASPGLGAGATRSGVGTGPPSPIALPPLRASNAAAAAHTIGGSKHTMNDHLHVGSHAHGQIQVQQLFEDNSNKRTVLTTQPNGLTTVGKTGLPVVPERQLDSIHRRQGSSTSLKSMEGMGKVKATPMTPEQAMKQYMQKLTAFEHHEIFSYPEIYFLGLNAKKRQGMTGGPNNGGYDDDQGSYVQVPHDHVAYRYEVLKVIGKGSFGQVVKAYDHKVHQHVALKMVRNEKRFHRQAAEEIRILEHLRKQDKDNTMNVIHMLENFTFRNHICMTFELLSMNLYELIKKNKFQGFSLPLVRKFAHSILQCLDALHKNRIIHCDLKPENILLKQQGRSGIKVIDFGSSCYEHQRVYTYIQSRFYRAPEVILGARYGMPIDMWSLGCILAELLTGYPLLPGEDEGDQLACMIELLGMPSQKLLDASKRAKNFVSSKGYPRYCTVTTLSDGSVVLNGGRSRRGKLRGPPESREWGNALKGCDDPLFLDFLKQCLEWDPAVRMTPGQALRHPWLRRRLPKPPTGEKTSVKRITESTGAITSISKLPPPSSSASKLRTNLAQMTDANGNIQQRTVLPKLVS

[17] = target: Cyclin-dependent kinase 5 (Homo sapiens, UniProt Q00535); assay: Inhibition of CDK5 (unknown origin) at 1 uM relative to control
MDA-MB-231 [18] = assay: Antiproliferative activity against human MDA-MB-231 cells assessed as decrease in number of colony formation at 10 uM measured after 24 days by crystal violet staining based analysis; format: functional, cell-based; conditions: time 24.0 day
MDA-MB-231 [19] = assay: Antiproliferative activity against human MDA-MB-231 cells assessed as inhibition of cell growth incubated for 24 hrs by MTT assay; format: functional, cell-based; conditions: MDA-MB-231, 24 h
MDA-MB-231 [20] = assay: Antitumor activity against human MDA-MB-231 cells xenografted in ip dosed BALB/c mouse assessed as upregulation of E-cadherin level administered once daily for 16 days; format: functional, organism-based; conditions: dose 20-80 mg/kg, time 16.0 day
MDA-MB-468 [21] = assay: Induction of apoptosis in human MDA-MB-468 cells assessed as downregulation of Bcl-2 expression incubated for 24 hrs; format: functional, cell-based; conditions: dose 5-20 µM
MDA-MB-468 [22] = assay: Induction of apoptosis in human MDA-MB-468 cells assessed as increase in […] at 10 uM incubated for 24 hrs by Annexin V/PI staining based flow cytometry analysis; format: functional, cell-based
MDA-MB-231 [23] = assay: Downregulation of Pol II CTD at ser2 residue expression in human MDA-MB-231 cells incubated for 24 hrs; format: functional, cell-based; conditions: dose 5-20 µM
[24] = Tmax in Sprague-Dawley rat at 1 mg/kg, iv measured upto 24 hrs by LC-MS/MS analysis; format: ADME, organism-based; conditions: in vivo
[25] = target: Poly [ADP-ribose] polymerase 2 (Homo sapiens, UniProt Q9UGN5); assay: Inhibition of PARP2 (unknown origin) incubated for 1 hr by ELISA analysis
MDA-MB-231 [26] = assay: Antitumor activity against human MDA-MB-231 cells xenografted in BALB/c mouse assessed as reduction in Ki67 expression at 20 to 80 mg/kg, ip administered once daily for 16 days by meyers hematoxylin staining based IHC analysis; format: functional, organism-based; conditions: dose 20-80 mg/kg, time 16.0 day
[27] = Toxicity in BALB/c mouse xenografted with human MDA-MB-231 cells assessed as morphological changes in spleen at 20 to 80 mg/kg, ip administered once daily for 16 days by H and E staining based analysis; format: organism-based; conditions: in vivo, 384 h, dose 20-80 mg/kg, time 16 day
MDA-MB-231 [28] = assay: […] DNA repair in human MDA-MB-231 cells assessed as […] formation at 10 uM incubated for 24 hrs by confocal laser scanning microscopic analysis; format: functional, cell-based
MDA-MB-468 [29] = assay: Inhibition of cell migration in human MDA-MB-468 cells assessed as wound closure at 10 uM incubated for 24 hrs by wound healing assay; format: functional, cell-based

Chain of Cyclin-dependent kinase 12 (Q9NYV4 whole entry, looked up): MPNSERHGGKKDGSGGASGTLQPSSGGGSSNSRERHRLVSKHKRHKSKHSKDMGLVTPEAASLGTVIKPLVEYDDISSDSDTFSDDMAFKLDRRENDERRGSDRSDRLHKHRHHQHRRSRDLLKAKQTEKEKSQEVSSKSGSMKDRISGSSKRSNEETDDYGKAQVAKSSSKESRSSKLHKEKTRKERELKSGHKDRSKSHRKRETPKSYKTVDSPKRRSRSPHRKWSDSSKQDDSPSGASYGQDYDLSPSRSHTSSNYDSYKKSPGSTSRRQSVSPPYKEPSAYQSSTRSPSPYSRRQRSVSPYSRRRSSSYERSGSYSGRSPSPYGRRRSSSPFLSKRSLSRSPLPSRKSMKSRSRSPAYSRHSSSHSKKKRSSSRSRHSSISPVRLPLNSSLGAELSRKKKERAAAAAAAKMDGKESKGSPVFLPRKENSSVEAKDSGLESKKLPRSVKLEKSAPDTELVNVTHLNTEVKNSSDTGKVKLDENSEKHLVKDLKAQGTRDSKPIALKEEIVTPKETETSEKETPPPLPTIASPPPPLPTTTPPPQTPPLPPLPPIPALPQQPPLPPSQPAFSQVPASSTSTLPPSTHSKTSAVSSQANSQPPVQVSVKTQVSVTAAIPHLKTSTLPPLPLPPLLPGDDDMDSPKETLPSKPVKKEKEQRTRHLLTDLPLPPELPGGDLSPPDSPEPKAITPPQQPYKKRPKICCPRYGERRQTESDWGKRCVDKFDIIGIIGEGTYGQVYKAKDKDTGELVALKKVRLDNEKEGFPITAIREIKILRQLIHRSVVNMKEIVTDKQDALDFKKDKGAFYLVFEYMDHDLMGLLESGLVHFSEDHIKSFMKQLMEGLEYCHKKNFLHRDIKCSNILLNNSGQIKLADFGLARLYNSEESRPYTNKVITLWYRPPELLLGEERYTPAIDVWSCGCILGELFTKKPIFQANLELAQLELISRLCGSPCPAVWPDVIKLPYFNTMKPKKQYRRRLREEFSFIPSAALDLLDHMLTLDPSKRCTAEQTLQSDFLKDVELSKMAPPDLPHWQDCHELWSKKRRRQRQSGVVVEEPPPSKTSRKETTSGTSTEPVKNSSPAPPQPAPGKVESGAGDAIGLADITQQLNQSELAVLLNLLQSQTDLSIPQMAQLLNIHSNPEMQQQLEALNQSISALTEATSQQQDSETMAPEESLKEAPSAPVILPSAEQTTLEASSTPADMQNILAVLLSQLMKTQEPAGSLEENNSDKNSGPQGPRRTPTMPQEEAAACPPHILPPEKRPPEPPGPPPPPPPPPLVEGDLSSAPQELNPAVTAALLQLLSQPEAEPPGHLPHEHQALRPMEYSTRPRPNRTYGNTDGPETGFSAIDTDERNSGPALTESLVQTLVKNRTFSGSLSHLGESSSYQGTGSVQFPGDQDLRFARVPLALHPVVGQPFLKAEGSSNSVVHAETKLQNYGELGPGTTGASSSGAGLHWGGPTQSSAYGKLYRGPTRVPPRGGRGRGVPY
Chain of Poly [ADP-ribose] polymerase 1 (P09874 whole entry): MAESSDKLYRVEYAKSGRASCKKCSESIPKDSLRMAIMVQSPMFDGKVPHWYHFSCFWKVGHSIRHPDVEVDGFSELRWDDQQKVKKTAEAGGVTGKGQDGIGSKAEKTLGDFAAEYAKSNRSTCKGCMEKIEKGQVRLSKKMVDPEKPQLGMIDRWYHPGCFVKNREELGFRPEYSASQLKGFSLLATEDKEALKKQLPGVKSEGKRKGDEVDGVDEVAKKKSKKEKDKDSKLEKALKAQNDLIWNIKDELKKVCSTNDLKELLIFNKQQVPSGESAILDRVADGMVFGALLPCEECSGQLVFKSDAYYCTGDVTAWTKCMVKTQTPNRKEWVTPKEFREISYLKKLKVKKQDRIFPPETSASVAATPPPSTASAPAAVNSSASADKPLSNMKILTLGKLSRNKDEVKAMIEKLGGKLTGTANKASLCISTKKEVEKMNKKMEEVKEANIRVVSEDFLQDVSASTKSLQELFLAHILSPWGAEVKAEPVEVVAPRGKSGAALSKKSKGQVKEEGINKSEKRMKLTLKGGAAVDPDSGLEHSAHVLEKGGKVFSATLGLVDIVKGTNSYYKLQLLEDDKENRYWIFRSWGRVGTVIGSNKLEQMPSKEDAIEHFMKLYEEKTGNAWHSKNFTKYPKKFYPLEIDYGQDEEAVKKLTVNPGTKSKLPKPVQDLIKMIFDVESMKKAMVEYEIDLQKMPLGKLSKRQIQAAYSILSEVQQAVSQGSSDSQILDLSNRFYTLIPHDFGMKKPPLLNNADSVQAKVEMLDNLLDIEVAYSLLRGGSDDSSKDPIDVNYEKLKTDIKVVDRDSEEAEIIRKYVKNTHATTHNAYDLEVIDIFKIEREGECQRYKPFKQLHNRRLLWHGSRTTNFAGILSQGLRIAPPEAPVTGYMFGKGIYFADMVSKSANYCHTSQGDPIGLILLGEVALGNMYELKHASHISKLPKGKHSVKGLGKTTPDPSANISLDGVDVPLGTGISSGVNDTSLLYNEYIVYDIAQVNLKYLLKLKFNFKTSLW
Chain of Dual specificity protein kinase CLK1 (Homo sapiens) (P49759 whole entry, looked up): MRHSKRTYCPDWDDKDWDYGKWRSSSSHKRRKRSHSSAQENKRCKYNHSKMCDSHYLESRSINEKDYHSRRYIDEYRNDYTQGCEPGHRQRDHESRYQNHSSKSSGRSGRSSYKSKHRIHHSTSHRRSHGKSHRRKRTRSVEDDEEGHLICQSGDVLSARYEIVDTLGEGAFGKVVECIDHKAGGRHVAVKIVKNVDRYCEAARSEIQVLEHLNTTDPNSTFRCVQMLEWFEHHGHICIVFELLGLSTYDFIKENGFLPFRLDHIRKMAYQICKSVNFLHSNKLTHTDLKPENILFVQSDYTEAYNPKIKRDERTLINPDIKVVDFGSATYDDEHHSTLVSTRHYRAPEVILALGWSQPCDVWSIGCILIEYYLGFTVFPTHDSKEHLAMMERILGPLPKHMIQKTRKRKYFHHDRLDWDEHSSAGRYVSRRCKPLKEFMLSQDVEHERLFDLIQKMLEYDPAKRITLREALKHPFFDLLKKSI
Chain of Cyclin-dependent kinase 5 (Q00535 whole entry, looked up): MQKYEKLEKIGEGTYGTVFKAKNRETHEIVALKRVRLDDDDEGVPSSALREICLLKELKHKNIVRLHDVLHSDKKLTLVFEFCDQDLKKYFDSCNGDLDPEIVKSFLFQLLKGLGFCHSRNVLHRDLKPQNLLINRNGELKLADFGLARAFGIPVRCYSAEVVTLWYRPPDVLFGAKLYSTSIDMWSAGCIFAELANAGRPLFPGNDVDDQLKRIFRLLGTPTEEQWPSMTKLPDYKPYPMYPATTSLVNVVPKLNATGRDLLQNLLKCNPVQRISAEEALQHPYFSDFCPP
Chain of Poly [ADP-ribose] polymerase 2 (Q9UGN5 whole entry): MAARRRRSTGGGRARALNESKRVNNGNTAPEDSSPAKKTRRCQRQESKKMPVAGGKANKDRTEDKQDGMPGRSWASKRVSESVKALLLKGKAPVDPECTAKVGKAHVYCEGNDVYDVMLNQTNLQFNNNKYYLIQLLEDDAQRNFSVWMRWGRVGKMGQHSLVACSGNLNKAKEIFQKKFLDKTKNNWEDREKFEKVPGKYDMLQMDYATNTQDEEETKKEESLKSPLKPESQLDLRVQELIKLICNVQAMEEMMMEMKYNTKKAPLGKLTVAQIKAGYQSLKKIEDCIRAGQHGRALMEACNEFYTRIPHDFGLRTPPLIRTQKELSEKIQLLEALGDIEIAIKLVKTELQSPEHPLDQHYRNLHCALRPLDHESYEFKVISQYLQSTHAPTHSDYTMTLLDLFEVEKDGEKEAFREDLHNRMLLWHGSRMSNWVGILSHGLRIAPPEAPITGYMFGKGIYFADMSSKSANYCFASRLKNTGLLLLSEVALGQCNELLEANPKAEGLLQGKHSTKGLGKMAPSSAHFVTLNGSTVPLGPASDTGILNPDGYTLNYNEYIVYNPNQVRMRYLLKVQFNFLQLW

Tmax [1]: 1.58 h
inhibition [8]: > 60%
AUC(0-inf) [9]: 1340 ng·h/mL
inhibition [10]: Dose-Dependent Effect
MRT inf [12]: 1.87 h
IC50 [14]: 34 nM
clearance [15]: 12.5 mL/min/kg
inhibition [16]: > 60%
inhibition [17]: > 60%
IC50 (MDA-MB-231 [19]): 8500 nM
Tmax [24]: 4.8 min
IC50 [25]: 30 nM
SMILES: NC(=O)c1cccc2[nH]c(NC(=O)c3cccc(C(=O)N4CCC(Nc5ncc(I)cn5)CC4)c3)nc12
Activity (MDA-MB-468 [2]): Dose-Dependent Effect
inhibition (MDA-MB-468 [3]): Active
Activity (MDA-MB-436 [4]): 63.76%
Activity [5]: Non-Toxic
Activity (MDA-MB-468 [6]): Active
Activity (MDA-MB-436 [7]): 7.35%
Activity (MDA-MB-231 [11]): 23.42%
Activity (MCF-10A): Non-Toxic
Activity (MDA-MB-231 [13]): Active
Activity (MDA-MB-231 [18]): Active
Activity (MDA-MB-231 [20]): Dose-Dependent Effect
Activity (MDA-MB-468 [21]): Dose-Dependent Effect
Activity (MDA-MB-468 [22]): Active
Activity (MDA-MB-231 [23]): Dose-Dependent Effect
Activity (MDA-MB-231 [26]): Active
Activity [27]: Non-Toxic
Activity (MDA-MB-231 [28]): Active
inhibition (MDA-MB-468 [29]): Active

— ChEMBL document CHEMBL5625183, “Discovery of a novel dual-target inhibitor of CDK12 and PARP1 that induces synthetic lethality for treatment of triple-negative breast cancer” (Eur J Med Chem, 2023)
